Results from US12570655B2, “Cysteine covalent modifiers of AKT1 and uses thereof” (Terremoto Biosciences, Inc., priority 2023, dated 2026).
Where two headings read alike, the source gives them in different places.

Legend:
Assay type in all cases: cell-based
[1] = system: LAPC4 prostate cancer cells; test: Antiproliferative effects in LAPC4 cells (CellTiter Glo); conditions: LAPC4 cells (AKT1 E17K allele), read-out: LAPC4 proliferation IC50
Procedure, shortened: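 LAPC4 prostate cancer cells carrying AKT1 E17K, grown in IMDM with 12% FBS, were seeded at 1,000 cells/well and exposed to compound dilutions for 72 h. Viability was read as intracellular ATP by CellTiter Glo luminescence, and IC50 was fitted with a log(inhibitor) vs. response Hill equation.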

AKT1 E17K = target: T1, AKT1 E17K (Homo sapiens, UniProt P31749, E17K); test: Live cell AKT1 E17K target engagement by NanoBRET competitive probe displacement; conditions: HEK293 cells transfected with kinase-NanoLuciferase fusion, 2 h at 37° C.
T1 construct: expressed in transfected cells; host or cells: HEK293
Procedure, shortened: (§1)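 HEK293 cells transiently expressing kinase–NanoLuc fusions overnight; treated with serial compound dilutions plus fluorescent ATP-competitive tracer at ~EC50, 2 h at 37 °C. BRET ratio E600/E460 read after substrate and extracellular luciferase inhibitor; IC50 from log(inhibitor) vs response Hill fit.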

AKT1 WT = target: T2, AKT1 WT (Homo sapiens, UniProt P31749); test: Live cell AKT1 WT target engagement by NanoBRET competitive probe displacement; conditions: HEK293 cells transfected with kinase-NanoLuciferase fusion, 2 h at 37° C.
T2 construct: expressed in transfected cells; host or cells: HEK293
Procedure, shortened: as §1

AKT2 = target: T3, AKT2 (Homo sapiens, UniProt P31751); test: Live cell AKT2 target engagement by NanoBRET competitive probe displacement; conditions: HEK293 cells transfected with kinase-NanoLuciferase fusion, 2 h at 37° C.
T3 construct: expressed in transfected cells; host or cells: HEK293
Procedure, shortened: as §1

T1 sequence (P31749 whole entry E17K, the tested form may be a part): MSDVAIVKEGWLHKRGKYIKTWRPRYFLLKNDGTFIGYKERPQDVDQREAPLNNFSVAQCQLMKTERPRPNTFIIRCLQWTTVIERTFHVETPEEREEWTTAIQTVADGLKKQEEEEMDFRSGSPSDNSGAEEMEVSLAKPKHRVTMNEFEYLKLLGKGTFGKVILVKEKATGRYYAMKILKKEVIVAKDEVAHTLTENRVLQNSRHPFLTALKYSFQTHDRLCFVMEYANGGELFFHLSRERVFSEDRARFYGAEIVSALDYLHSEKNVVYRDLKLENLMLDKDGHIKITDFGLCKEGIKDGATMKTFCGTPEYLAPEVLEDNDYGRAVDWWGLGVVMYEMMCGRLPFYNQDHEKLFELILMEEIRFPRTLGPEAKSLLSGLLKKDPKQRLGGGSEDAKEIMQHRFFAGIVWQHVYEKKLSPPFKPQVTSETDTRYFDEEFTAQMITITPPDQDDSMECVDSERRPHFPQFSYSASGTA
T3 sequence (P31751 whole entry, the tested form may be a part): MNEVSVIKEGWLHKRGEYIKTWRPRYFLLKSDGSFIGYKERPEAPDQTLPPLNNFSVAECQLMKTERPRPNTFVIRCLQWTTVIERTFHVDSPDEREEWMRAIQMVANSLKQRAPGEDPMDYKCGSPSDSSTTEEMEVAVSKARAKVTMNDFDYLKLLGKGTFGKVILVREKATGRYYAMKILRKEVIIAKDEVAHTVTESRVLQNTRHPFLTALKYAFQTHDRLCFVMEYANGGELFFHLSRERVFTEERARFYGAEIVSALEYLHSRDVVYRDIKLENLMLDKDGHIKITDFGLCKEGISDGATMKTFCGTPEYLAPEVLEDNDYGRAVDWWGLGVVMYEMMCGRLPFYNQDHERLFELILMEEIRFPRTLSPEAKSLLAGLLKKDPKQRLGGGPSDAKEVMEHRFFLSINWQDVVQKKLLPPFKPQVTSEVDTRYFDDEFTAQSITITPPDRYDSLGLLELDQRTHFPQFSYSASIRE
T2 sequence (P31749 whole entry, the tested form may be a part): as the sequence (P31749 whole entry E17K, the tested form may be a part) above, with K17E counted along it

Row | IC50 ([1]; Homo sapiens, LAPC4, 72 h) | IC50 (AKT1 E17K) | IC50 (AKT1 WT) | IC50 (AKT2) | IC50 ([1]; 72 h) | SMILES
1 | 0.327 µM | 0.264 µM | 0.0341 µM | 0.278 µM |  | C=C(F)C(=O)N1CCC2(CC1)CC(N[C@H]1CCc3cc(-n4c(-c5cccnc5N)nc5ccc(-n6cccn6)nc54)ccc31)C2 [Example 84, (S)-1-(2-((5-(2-(2-aminopyridin-3-yl)-5-(1H-pyrazol-1-yl)-3H-imidazo[4,5-b]pyridin-3-yl)-2,3-dihydro-1H-inden-1-yl)amino)-7-azaspiro[3.5]nonan-7-yl)-2-fluoroprop-2-en-1-one]
2 | 0.748 µM | 0.0565 µM | 1.34 µM | 0.324 µM |  | Nc1ncccc1-c1nc2ccc(-n3cccn3)nc2n1-c1ccc2c(c1)CC[C@@H]2NC1CCN(C(=O)C(F)Cl)CC1 (stereo partly drawn) [Example 173, 1-(4-{[(1S)-5-[2-(2-aminopyridin-3-yl)-5-(pyrazol-1-yl)imidazo[4,5-b]pyridin-3-yl]-2,3-dihydro-1H-inden-1-yl]amino}piperidin-1-yl)-2-chloro-2-fluoroethanone]
3 | 1.16 µM | 0.032 µM | 1.64 µM | 0.432 µM |  | C=CC(=O)N1CCN(N[C@H]2CCc3cc(-n4c(-c5cccnc5N)nc5ccc(C6CC6)nc54)ccc32)CC1 [Example 349]
4 |  | 0.0992 µM | 0.0541 µM | 1.12 µM | 4.86 µM | C=CC(=O)N1CCCC(N[C@H]2CCc3cc(-n4c(-c5cccnc5N)nc5ccc(-n6cccn6)nc54)ccc32)C1 (single isomer, unassigned) [Example 124, 1-[(3*)-3-{[(1S)-5-[2-(2-aminopyridin-3-yl)-5-(pyrazol-1-yl)imidazo[4,5-b]pyridin-3-yl]-2,3-dihydro-1H-inden-1-yl]amino}piperidin-1-yl]prop-2-en-1-one]
5 | 0.217 µM | 0.0286 µM | 0.301 µM | 0.0567 µM |  | C=CC(=O)N1CC2CC1CCC2N[C@H]1CCc2cc(-n3c(-c4cccnc4N)nc4ccc(-n5cccn5)nc43)ccc21 (stereo partly drawn) [Example 294, 1-(2-(((S)-5-(2-(2-aminopyridin-3-yl)-5-(1H-pyrazol-1-yl)-3H-imidazo[4,5-b]pyridin-3-yl)-2,3-dihydro-1H-inden-1-yl)amino)-6-azabicyclo[3.2.1]octan-6-yl)prop-2-en-1-one]
6 | 0.0724 µM | 0.0286 µM | 0.019 µM | 0.0524 µM |  | C=CS(=O)(=O)N1CCC(N[C@H]2CCc3cc(-n4c(-c5cccnc5N)nc5ccc(-n6cccn6)nc54)ccc32)CC1 [Example 61, 3-{3-[(1S)-1-{[1-(ethenesulfonyl)piperidin-4-yl]amino}-2,3-dihydro-1H-inden-5-yl]-5-(pyrazol-1-yl)imidazo[4,5-b]pyridin-2-yl}pyridin-2-amine]
7 | 0.0885 µM | 0.0328 µM | 0.0226 µM | 0.0748 µM |  | C=CC(=O)Nc1cc(F)ccc1C(=O)N[C@H]1CCc2cc(-n3c(-c4cccnc4N)nc4ccc(-n5cccn5)nc43)ccc21 [Example 21, (S)-2-acrylamido-N-(5-(2-(2-aminopyridin-3-yl)-5-(1H-pyrazol-1-yl)-3H-imidazo[4,5-b]pyridin-3-yl)-2,3-dihydro-1H-inden-1-yl)-4-fluorobenzamide]
8 |  | 0.0203 µM | 2.59 µM | 0.0684 µM | 0.464 µM | C=CC(=O)N1CCC(N[C@@H]2c3ccc(-n4c(-c5ccccc5F)nc5ccc(-n6cccn6)nc54)cc3CC2F)C[C@H]1C (single isomer, unassigned) [Example 317, 1-((2R,4*)-4-(((1R,2*)-2-fluoro-5-(2-(2-fluorophenyl)-5-(1H-pyrazol-1-yl)-3H-imidazo[4,5-b]pyridin-3-yl)-2,3-dihydro-1H-inden-1-yl)amino)-2-methylpiperidin-1-yl)prop-2-en-1-one]
9 |  | 0.0146 µM | 0.0597 µM | 0.028 µM | 0.07 µM | C=CC(=O)N1CCC(N[C@H]2CC(F)c3cc(-n4c(-c5cccnc5N)nc5ccc(-n6cccn6)nc54)ccc32)CC1 (single isomer, unassigned) [Example 233, 1-(4-(((1S,3*)-5-(2-(2-aminopyridin-3-yl)-5-(1H-pyrazol-1-yl)-3H-imidazo[4,5-b]pyridin-3-yl)-3-fluoro-2,3-dihydro-1H-inden-1-yl)amino)piperidin-1-yl)prop-2-en-1-one]
10 | 0.088 µM | 0.027 µM | 0.0158 µM | 0.326 µM |  | C=CC(=O)Nc1ccccc1C(=O)N[C@H]1CCc2cc(-n3c(-c4cccnc4N)nc4ccc(-n5nccn5)nc43)ccc21 [Example 19, (S)-2-acrylamido-N-(5-(2-(2-aminopyridin-3-yl)-5-(2H-1,2,3-triazol-2-yl)-3H-imidazo[4,5-b]pyridin-3-yl)-2,3-dihydro-1H-inden-1-yl)benzamide]
11 | 0.137 µM | 0.00551 µM | 0.247 µM | 0.0414 µM |  | C=CC(=O)N1CCC(N[C@H]2CCc3cc(-n4c(-c5cccnc5N)nc5ccc(-n6ccc(C7(C#N)CC7)n6)nc54)ccc32)CC1 [Example 322, (S)-1-(1-(3-(1-((1-acryloylpiperidin-4-yl)amino)-2,3-dihydro-1H-inden-5-yl)-2-(2-aminopyridin-3-yl)-3H-imidazo[4,5-b]pyridin-5-yl)-1H-pyrazol-3-yl)cyclopropane-1-carbonitrile]
12 |  | 0.0536 µM | 0.00909 µM | 0.135 µM | 0.187 µM | C=CC(=O)N1CCC(N[C@H]2CCc3cc(-n4c(-c5cccnc5N)nc5ccc(-n6cccn6)nc54)ccc32)C(C)C1 (single isomer, unassigned) [Example 100, 1-((3*,4*)-4-(((S)-5-(2-(2-aminopyridin-3-yl)-5-(1H-pyrazol-1-yl)-3H-imidazo[4,5-b]pyridin-3-yl)-2,3-dihydro-1H-inden-1-yl)amino)-3-methylpiperidin-1-yl)prop-2-en-1-one]
13 | 0.189 µM | 0.0227 µM | 0.0187 µM | 0.117 µM |  | C=CC(=O)Nc1cccc(C(=O)N[C@H]2CCc3cc(-n4c(-c5cccnc5N)nc5ccc(-n6cccn6)nc54)ccc32)c1 [Example 2, (S)-3-acrylamido-N-(5-(2-(2-aminopyridin-3-yl)-5-(1H-pyrazol-1-yl)-3H-imidazo[4,5-b]pyridin-3-yl)-2,3-dihydro-1H-inden-1-yl)benzamide]
14 | 0.104 µM | 0.0203 µM | 0.127 µM | 0.0821 µM |  | C=CC(=O)N1CCC(N[C@H]2CCc3cc(-n4c(-c5cccnc5N)nc5ccc(-n6ccc(COC)n6)nc54)ccc32)CC1 [Example 280, 1-(4-{[(1S)-5-[2-(2-aminopyridin-3-yl)-5-[3-(methoxymethyl)pyrazol-1-yl]imidazo[4,5-b]pyridin-3-yl]-2,3-dihydro-1H-inden-1-yl]amino}piperidin-1-yl)prop-2-en-1-one]
15 |  | 0.0236 µM | 1.24 µM | 0.0921 µM | 0.351 µM | C=CC(=O)N1CCC(N[C@@H]2c3ccc(-n4c(-c5cccnc5N)nc5ccc(-n6ccc(F)n6)nc54)cc3CC2F)C[C@@H]1C (single isomer, unassigned) [Example 272, 1-((2S,4*)-4-(((1R,2*)-5-(2-(2-aminopyridin-3-yl)-5-(3-fluoro-1H-pyrazol-1-yl)-3H-imidazo[4,5-b]pyridin-3-yl)-2-fluoro-2,3-dihydro-1H-inden-1-yl)amino)-2-methylpiperidin-1-yl)prop-2-en-1-one]
16 | > 10 µM | 0.881 µM | 0.204 µM | 2.09 µM |  | C=C(Cl)C(=O)Nc1ccccc1C(=O)N[C@H]1CCc2cc(-n3c(-c4cccnc4N)nc4ccc(-n5cccn5)nc43)ccc21 [Example 38, (S)-N-(5-(2-(2-aminopyridin-3-yl)-5-(1H-pyrazol-1-yl)-3H-imidazo[4,5-b]pyridin-3-yl)-2,3-dihydro-1H-inden-1-yl)-2-(2-chloroacrylamido)benzamide]
17 | > 10 µM | > 1 µM | > 1 µM | > 10 µM |  | C=CC(=O)N1CCC[C@@H]1C(=O)N[C@H]1CCc2cc(-n3c(-c4cccnc4N)nc4ccc(-n5cccn5)nc43)ccc21 [Example 25]
18 |  | 0.0116 µM | 0.264 µM | 0.0362 µM | 0.641 µM | C=CC(=O)N1CCC(N[C@@H]2c3ccc(-n4c(-c5cccnc5N)nc5ccc(-n6cccn6)nc54)cc3CC2F)CC1C(F)F (single isomer, unassigned) [Example 304, 1-((2*,4*)-4-(((1R,2*)-5-(2-(2-aminopyridin-3-yl)-5-(1H-pyrazol-1-yl)-3H-imidazo[4,5-b]pyridin-3-yl)-2-fluoro-2,3-dihydro-1H-inden-1-yl)amino)-2-(difluoromethyl)piperidin-1-yl)prop-2-en-1-one]
19 | 3.96 µM | 0.14 µM | 2.35 µM | 0.352 µM |  | C=CC(=O)N1CCC(N[C@H]2CCc3cc(-n4c(-c5cccnc5N)nc5cc(C(F)(F)F)cnc54)ccc32)CC1 [Example 216, 1-(4-{[(1S)-5-[2-(2-aminopyridin-3-yl)-6-(trifluoromethyl)imidazo[4,5-b]pyridin-3-yl]-2,3-dihydro-1H-inden-1-yl]amino}piperidin-1-yl)prop-2-en-1-one]
20 | 0.68 µM | 0.0398 µM | 2.94 µM | 0.153 µM |  | C=CC(=O)NCc1ccccc1C(=O)N[C@H]1CCc2cc(-n3c(-c4cccnc4N)nc4ccc(-n5nccn5)nc43)ccc21 [Example 263, (S)-N-[(1S)-5-[2-(2-aminopyridin-3-yl)-5-(1,2,3-triazol-2-yl)imidazo[4,5-b]pyridin-3-yl]-2,3-dihydro-1H-inden-1-yl]-2-(prop-2-enamidomethyl)benzamide]
